# Measurements reported in patent US6680025B2, “Device and method for photoactivation” (Cerus Corporation, priority 1989, dated 2004).
# Legend:
# [1] = system: tRNA; assay: Photobinding of BIOMIP to tRNA, biotin detection (BluGene); type: binding; details: 100 μg/ml, irradiated 30 minutes CE-III; no signal from unirradiated controls
# Procedure: This example describes photobinding of ^3H-AMIP, ^3H-AMDMIP and BIOMIP to RNA. A tRNA stock was prepared at a concentration of 765 μg/ml in 1×TE/10 mM NaCl. Appropriate amounts of each compound were prepared in separate reaction vessels such that upon addition of 200 μl of the tRNA solution (153 μg) the final concentration of each compound was 100 μg/ml. […] were used in the experiment; the BIOMIP used was unlabelled. Each reaction vessel was then irradiated for 30 minutes at 25° C. in the CE-III device. Identical unirradiated reaction mixtures were used as controls for each compound. Following irradiation, each mixture was extracted with CHCl3 (4×200 μl ) then precipitated (×2). The pellets were resuspended in 1×TE and the binding levels determined as follows. For the two labelled compounds (^3H-AMDMIP and ^3H-AMIP), the nucleic acid concentration was determined optically and radioactivity measured by scintillation counting of aliquots of the stock solutions. Binding of the compounds was then calculated to be as follows:
# To determine if binding of BIOMIP to tRNA has occurred, it was necessary to use a non-radioactive format which detected the biotin moiety on the compound. A commercial kit (“BluGene”; BRL) was used for this purpose. The kit instructions were followed for detection of both the control DNA (supplied with the kit) and BIOMIP treated tRNA. […]
# [2] = system: PCR product (primer pair SK-38/39 analogs); assay: Post-amplification sterilization with AMT; type: biochemical; details: AMT 100 μg/ml, irradiated CE-III; 10^4 to 10^10 copies carried over; 30 cycles
# Procedure: A PCR sample is prepared for amplification with the following changes. Instead of AMDMIP, AMT is added prior to amplification at a concentration of 100 μg/ml. Instead of primer pair SK-38/39, the biotinylated analogs, in which biotin has been appended to the 5′ end of one or both primers via an intervening tetraethylenglycol bridge (ester linkage to the biotin), are used. Following 30 cycles of PCR, the reaction vessel is exposed to 300-400 nm light on the CE-III device. Following irradiation, the PCR reaction vessel is opened and the PCR product removed. Free primer is then removed by spinning the PCR reaction mix through a Centricon 100 (Amicon Division, W R Grace & Co., Danvers, Mass.). […] After immobilization, the PCR product is detected with a commercially available biotin detection systems (BluGene Detection System; catalog #8179 SA; BRL). […]
# PCR reagents are added and the samples reamplified for 30 cycles, and α-^32P-dCTP is present during the amplification. Following PCR, the reamplified samples are analyzed by denaturing PAGE as described above.
# In a third method, a solution of AMT (100 μg/ml) is prepared and irradiated for 15 minutes on the CE-III device. […] The mix is then amplified for 30 cycles in the presence of α-^32P-dCTP, then analyzed by PAGE, as above. […]
Compound,binding to tRNA by biotin detection [1],reamplification of treated PCR product [2]
"5-N-(N,N′-Dimethyl-(6-{biotinamido}-hexanoate)-1,6-hexanediamine])-methyl-isopsoralen [BIOMIP]",covalently bound to the tRNA,
"Cc1oc2c(C)c3oc(=O)cc(C)c3cc2c1CN [AMT, 4′-aminomethyl-4,5′,8-trimethylpsoralen]",,does not reamplify
